Laboratory results: PubChem BioAssay AID248 (DTP/NCI, 2004)
Several values for one entry are separate records, joined by “and”; a condition that tells them apart may be missing. Equal values may be shown once. Inconclusive results and toxic doses are left out. Rule as the data show it: active = T/C of 150% or more; inactive = T/C below 125%.

Tested on: L1210 leukemia ip in BDF1 mice, survival T/C
Experiment: NCI In Vivo Anticancer Drug Screen. Data for tumor model L1210 Leukemia (intraperitoneal) in B6D2F1 (BDF1) mice
Details: endpoint: mean survival time, higher = longer survival
Method in brief: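 Transplantable tumor model; survival measured in treated vs vehicle control mice. Value = treated/control.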

[1] = dose: 10.0 mg/kg/injection, schedule: Q01DX001 (ip), vehicle: saline
[2] = dose: 50.0 mg/kg/injection, schedule: Q01DX001 (ip), vehicle: saline
[3] = dose: 100.0 mg/kg/injection, schedule: Q01DX001 (ip), vehicle: saline
[4] = dose: 50.0 mg/kg/injection, schedule: Q04DX003 (ip), vehicle: saline
[5] = dose: 100.0 mg/kg/injection, schedule: Q04DX003 (ip), vehicle: saline
[6] = dose: 100.0 mg/kg/injection, schedule: Q04DX002 (ip), vehicle: Klucel (hydroxypropylcellulose) (HPC)
[7] = dose: 200.0 mg/kg/injection, schedule: Q04DX002 (ip), vehicle: Klucel (hydroxypropylcellulose) (HPC)
[8] = dose: 400.0 mg/kg/injection, schedule: Q04DX002 (ip), vehicle: Klucel (hydroxypropylcellulose) (HPC)
[9] = dose: 100.0 mg/kg/injection, schedule: Q04DX003 (ip), vehicle: saline with Tween-80
[10] = dose: 200.0 mg/kg/injection, schedule: Q04DX003 (ip), vehicle: saline with Tween-80
[11] = dose: 400.0 mg/kg/injection, schedule: Q04DX003 (ip), vehicle: saline with Tween-80
[12] = dose: 50.0 mg/kg/injection, schedule: Q01DX009 (ip), vehicle: saline with Tween-80
[13] = dose: 100.0 mg/kg/injection, schedule: Q01DX009 (ip), vehicle: saline with Tween-80
[14] = dose: 200.0 mg/kg/injection, schedule: Q01DX009 (ip), vehicle: saline with Tween-80
[15] = dose: 100.0 mg/kg/injection, schedule: Q04DX002 (ip), vehicle: saline
[16] = dose: 200.0 mg/kg/injection, schedule: Q01DX001 (ip), vehicle: saline
[17] = dose: 200.0 mg/kg/injection, schedule: Q04DX002 (ip), vehicle: saline
[18] = dose: 400.0 mg/kg/injection, schedule: Q01DX001 (ip), vehicle: saline
[19] = dose: 400.0 mg/kg/injection, schedule: Q04DX002 (ip), vehicle: saline
[20] = dose: 25.0 mg/kg/injection, schedule: Q01DX009 (ip), vehicle: saline with Tween-80

Measured: T/C

Cc1cc([N+](C)(C)C)cc(C)c1C#[N+][O-]
inactive: dose: 1.25 mg/kg/injection, schedule: Q01DX001 (ip), vehicle: saline 104 % of control | dose: 2.5 mg/kg/injection, schedule: Q01DX001 (ip), vehicle: saline 93 % of control | dose: 5.0 mg/kg/injection, schedule: Q01DX001 (ip), vehicle: saline 102 % of control | [1] 102 % of control

c1ccc2c(c1)Cc1cc(CN3CCOCC3)ccc1-2
inactive: dose: 50.0 mg/kg/injection, schedule: Q01DX001 (ip), vehicle: carboxymethylcellulose (CMC) 92 % of control | dose: 100.0 mg/kg/injection, schedule: Q01DX001 (ip), vehicle: carboxymethylcellulose (CMC) 100 % of control | dose: 200.0 mg/kg/injection, schedule: Q01DX001 (ip), vehicle: carboxymethylcellulose (CMC) 94 % of control | dose: 400.0 mg/kg/injection, schedule: Q01DX001 (ip), vehicle: carboxymethylcellulose (CMC) 94 % of control

CC(=O)Nc1nnc(Sc2n[nH]c(=O)[nH]c2=O)s1
inactive: [1] 98 % of control

CCCOC(=O)c1cncn1C(C)c1ccccc1 (centres undefined)
inactive: dose: 25.0 mg/kg/injection, schedule: Q01DX001 (ip), vehicle: saline 98 % of control | [2] 96 % of control | [3] 94 % of control

CCC(C)C(C(=O)OC1CCN(C)CC1)c1ccccc1 (centres undefined)
inactive: dose: 25.0 mg/kg/injection, schedule: Q04DX003 (ip), vehicle: saline 102 % of control | dose: 50.0 mg/kg/injection, schedule: Q01DX009 (ip), vehicle: saline 105 % of control | [4] 96 % of control | dose: 100.0 mg/kg/injection, schedule: Q01DX009 (ip), vehicle: saline 98 % of control | [5] 97 % of control and 108 % of control

CC1=C2C(=CC(C)(C)[C@@H]2O)C(=O)[C@](C)(O)C12CC2
inactive: dose: 75.0 micrograms/kg/injection, schedule: Q01DX Z (ip), vehicle: saline 98 % of control | dose: 150.0 micrograms/kg/injection, schedule: Q01DX Z (ip), vehicle: saline 104 % of control | dose: 300.0 micrograms/kg/injection, schedule: Q01DX Z (ip), vehicle: saline 106 % of control | dose: 600.0 micrograms/kg/injection, schedule: Q01DX Z (ip), vehicle: saline 106 % of control

C[N+](C)(CCOC(=O)C1C2CC3OC(=O)C1C3C2)Cc1ccccc1 (centres undefined)
inactive: [5] 101 % of control

O=c1ccnc(-c2ccccc2)[nH]1
inactive: [6] 119 % of control | [7] 119 % of control | [8] 114 % of control

CC1(C)NC(=O)N(CCO)C1=O
inactive: [4] 111 % of control | [5] 111 % of control | dose: 200.0 mg/kg/injection, schedule: Q04DX003 (ip), vehicle: saline 100 % of control | dose: 400.0 mg/kg/injection, schedule: Q04DX003 (ip), vehicle: saline 101 % of control

CCCCCCCC(=O)Nc1c(C)cccc1C
inactive: [9] 97 % of control | [10] 93 % of control | [11] 93 % of control

COC(=O)c1ccc(O)c([N+](=O)[O-])c1
inactive: [12] 103 % of control | [13] 94 % of control | [14] 89 % of control

CNCCNC
inactive: [3] 94 % of control | [15] 103 % of control | [16] 102 % of control | [17] 103 % of control | [18] 96 % of control | [19] 90 % of control

CCCCn1cnc2c(SC3CCCC3)ncnc21
inactive: dose: 100.0 mg/kg/injection, schedule: Q01DX001 (ip), vehicle: other 98 % of control | dose: 200.0 mg/kg/injection, schedule: Q01DX001 (ip), vehicle: other 96 % of control | dose: 400.0 mg/kg/injection, schedule: Q01DX001 (ip), vehicle: other 93 % of control

CN(C)Cc1cc(C(C)(C)C)c(O)c(C(C)(C)C)c1
inactive: [20] 112 % of control | [12] 98 % of control | [13] 94 % of control | [9] 95 % of control

CC(=O)OC1COC(n2cnc3c(=O)[nH]cnc32)C(OC(C)=O)C1OC(C)=O (centres undefined)
inactive: [2] 97 % of control | [3] 97 % of control and 115 % of control and 101 % of control | [16] 86 % of control and 109 % of control and 103 % of control | [18] 95 % of control

O=C(Nc1ccc(Cl)cc1)NC1CCCCC1
inactive: dose: 100.0 mg/kg/injection, schedule: Q04DX003 (ip), vehicle: Klucel (hydroxypropylcellulose) (HPC) 92 % of control | dose: 200.0 mg/kg/injection, schedule: Q04DX003 (ip), vehicle: Klucel (hydroxypropylcellulose) (HPC) 92 % of control | dose: 400.0 mg/kg/injection, schedule: Q04DX003 (ip), vehicle: Klucel (hydroxypropylcellulose) (HPC) 92 % of control

O=C(NCCCl)Nc1ccc(C(=O)O)c(O)c1
inactive: dose: 80.0 mg/kg/injection, schedule: Q04DX002 (ip), vehicle: Klucel (hydroxypropylcellulose) (HPC) 98 % of control | dose: 160.0 mg/kg/injection, schedule: Q04DX002 (ip), vehicle: Klucel (hydroxypropylcellulose) (HPC) 88 % of control | dose: 320.0 mg/kg/injection, schedule: Q04DX002 (ip), vehicle: Klucel (hydroxypropylcellulose) (HPC) 91 % of control

CNC(C)(C)C
inactive: [9] 93 % of control | [10] 93 % of control | [11] 86 % of control

N#Cc1ccccc1C(N)=O
inactive: dose: 12.5 mg/kg/injection, schedule: Q04DX002 (ip), vehicle: saline 107 % of control | dose: 25.0 mg/kg/injection, schedule: Q04DX002 (ip), vehicle: saline 98 % of control | dose: 50.0 mg/kg/injection, schedule: Q04DX002 (ip), vehicle: saline 102 % of control | [15] 90 % of control

N#CCCNC=O
inactive: [15] 109 % of control | [17] 98 % of control | [19] 109 % of control

O=c1c2ccccc2[nH]c(=S)n1-c1ccc(Cl)cc1
inactive: dose: 100.0 mg/kg/injection, schedule: Q01DX009 (ip), vehicle: Klucel (hydroxypropylcellulose) (HPC) 100 % of control | [9] 100 % of control | dose: 200.0 mg/kg/injection, schedule: Q01DX009 (ip), vehicle: Klucel (hydroxypropylcellulose) (HPC) 111 % of control | [10] 100 % of control | dose: 400.0 mg/kg/injection, schedule: Q01DX009 (ip), vehicle: Klucel (hydroxypropylcellulose) (HPC) 97 % of control | [11] 97 % of control

c1ccc(-c2csc3[n+]2CCN3)cc1
inactive: [2] 99 % of control

CNC1C(O)C(OC2C(N)CC(N)C(OC3OC(CN)=CCC3N)C2O)OCC1(C)O (centres undefined)
inactive: dose: 63.5 mg/kg/injection, schedule: Q04DX002 (ip), vehicle: saline with Tween-80 90 % of control | dose: 125.0 mg/kg/injection, schedule: Q04DX002 (ip), vehicle: saline with Tween-80 97 % of control | dose: 250.0 mg/kg/injection, schedule: Q04DX002 (ip), vehicle: saline with Tween-80 87 % of control

O=C1OC(c2cccc(Cl)c2)=N/C1=C\c1ccc2c(c1)OCO2
inactive: dose: 100.0 mg/kg/injection, schedule: Q04DX002 (ip), vehicle: saline with Tween-80 95 % of control | dose: 200.0 mg/kg/injection, schedule: Q04DX002 (ip), vehicle: saline with Tween-80 89 % of control | dose: 400.0 mg/kg/injection, schedule: Q04DX002 (ip), vehicle: saline with Tween-80 92 % of control

CC(CC(=O)O)[Se][Se]C(C)CC(=O)O (centres undefined)
inactive: dose: 100.0 mg/kg/injection, schedule: Q01DX001 (ip), vehicle: Klucel (hydroxypropylcellulose) (HPC) 108 % of control | dose: 200.0 mg/kg/injection, schedule: Q01DX001 (ip), vehicle: Klucel (hydroxypropylcellulose) (HPC) 102 % of control

CC(C(=O)C(Cc1ccccc1)c1ccccc1)C1CCC2C3C(OC=O)CC4CC(OC=O)CCC4(C)C3CC(OC=O)C12C (centres undefined)
inactive: dose: 12.5 mg/kg/injection, schedule: Q01DX009 (ip), vehicle: saline with Tween-80 90 % of control | [20] 87 % of control | [12] 90 % of control | [13] 91 % of control | [14] 88 % of control

Cc1ccc(N=Nc2ccc(C)cc2NC(=O)Nc2cccc(F)c2)cc1
inactive: [13] 90 % of control | [14] 90 % of control | dose: 400.0 mg/kg/injection, schedule: Q01DX009 (ip), vehicle: saline with Tween-80 98 % of control

COc1ccccc1C(=O)N/N=C\c1c[nH]c2ccccc12
inactive: [6] 93 % of control | [7] 89 % of control | [8] 89 % of control
